Test results reported in patent US8618357B2, “Sweetpotato SRD1 cDNA and transgenic plants with high-numbered storage roots using the same” (Korea University Research and Business Foundation, priority 2010, dated 2013).

System: SRD1 transcript
Assay: Transcriptional regulation of SRD1 in response to exogenous IAA in fibrous roots of single-leaf plantlets (real-time RT-PCR)
Type: in vivo, sweetpotato
Details: for transcript level of SRD1: fibrous roots, 25° C. in the dark, FIG. 7A; for transcript level of SRD1 (time course): FIG. 7B
Protocol: To determine the transcriptional regulation of SRD1, SRD1-specific primers [5′-[…]-3′(SEQ ID NO.: 10) and 5′-GTGCACGAAACTCCCCTT-3′(SEQ ID NO.: 11)] were designed to contain nucleotide 180 (the nucleotide showing an SNP between SRD1 and IbMADS1) and the 3 bp deletion region in SRD1 at the 3′ end of the forward primer and at the 3′ end of the reverse primer, respectively (FIG. 1).
The roots of sweetpotato were treated with IAA according to the following method. Sweetpotato plantlets bearing a single leaf and petiole (single-leaf plantlets) were collected from sweetpotato plants and incubated in flasks containing distilled water for 3 weeks. After fibrous roots had developed from the distal end of the petiole, the single-leaf plantlets were incubated in various concentrations of IAA (0, 50, 500, 1000, 2000 μM) at 25° C. in the dark for various time periods (0-24 h). After the hormone treatment, total RNA was extracted from the fibrous roots using the RNeasy Plant Mini Kit™ (Qiagen) and used for real-time and semi-quantitative reverse transcription-PCR (RT-PCR).
Total RNA (5 μg) was used for first-strand cDNA synthesis using the SuperScript III first-strand cDNA synthesis kit (Invitrogen). The resulting cDNA solution was then diluted with 30 μl of TE (10 mM TRIS-HCl, pH 8.0, 1 mM EDTA). The primers for real-time RT-PCR were as follows: SRD1 (5′-[…]-3′; SEQ ID NO.: 10), 5′-GTGCACGAAACTCCCCTT-3′; SEQ ID NO. 11). Real-time PCR analysis was performed using the LightCycler 480 quantification system (Roche Diagnostics) according to the manufacturer's instructions. Expression levels were normalized with β-tubulin expression amplified with 5′-[…]-3′ (SEQ ID NO.: 12) and 5′-[…]-3′ (SEQ ID NO.: 13) primers. PCR were performed starting with pre-denaturation at 95° C. for 10 min before 45 cycles of denaturation at 95° C. for 10 sec, annealing at 58° C. for 10 sec and extension at 72° C. for 20 sec. Following the amplification phase, a melting curve analysis was conducted from 65° C. to 97° C. The second derivative maximum method in the LightCycler 480 quantification software (Roche Diagnostics) was used to evaluate the data.

O=C(O)Cc1c[nH]c2ccccc12 [IAA, Indole-3-acetic acid]
transcript level of SRD1 (50 μM IAA): decreased
transcript level of SRD1 (time course) (500 μM IAA, 0.5 h after treatment): decreased compared with the control
transcript level of SRD1 (time course) (500 μM IAA, 1 h after treatment): decreased compared with the control
transcript level of SRD1 (time course) (500 μM IAA, 3 h after treatment): decreased compared with the control
transcript level of SRD1 (time course) (500 μM IAA, 6 h after treatment): increased sharply
transcript level of SRD1 (time course) (500 μM IAA, 12 h after treatment): decreased compared with the control
transcript level of SRD1 (time course) (500 μM IAA, 24 h after treatment): decreased compared with the control
transcript level of SRD1 (500 μM IAA): decreased
transcript level of SRD1 (1000 μM IAA): increased sharply
transcript level of SRD1 (2000 μM IAA): decreased to almost the same level as that observed at 0 μM IAA
